In US8609858B2, “Spiro derivatives of parthenin as novel anticancer agents” (Council of Scientific & Industrial Research, priority 2008, dated 2013):

Assays:
[1] = system: DU-145; assay: In vitro cytotoxicity screening (sulphodamine B dye), DU-145; type: cell-based; conditions: Homo sapiens
Experimental: (§1) Cells at sub confluent stage were harvested from the flask by treatment with trypsin (0.5% in PBS containing 0.02% EDTA) for determination of cytotoxicity. […] The cell suspensions of required cell density were prepared in complete growth medium with gentamycin (50 μg/ml) for determination of cytotoxicity. The cells (100 μl/well) were inoculated in 96 well tissue culture plates. The cells were allowed to grow for 24 hrs temperature of 37° C. and in a humidified atmosphere of 5% CO2 in air. Stock solution of (20 mM) of test material was prepared in DMSO. The stock solution was serially diluted with complete growth medium containing 50 μg/ml of gentamycin to obtain […] working test solutions of 1., 2, 5, 10, 50 and 100 μM.
(§2) The media were supplemented with FCS (10%), penicillin (100 Units/ml), streptomycin (100 μg/ml) and glutamine (2 mM) and cells were grown in CO2 incubator (Hera cell, Heraeus, USA) at 37° C. with 90% humidity and 5% CO2.

[2] = system: PC-3; assay: In vitro cytotoxicity screening (sulphodamine B dye), PC-3; type: cell-based; conditions: Homo sapiens; PC-3 prostate cancer cell line
Experimental: as §1, §2

[3] = system: MOLT-4 cells; assay: DNA cell cycle analysis by flow cytometry; type: cell-based, human; conditions: for Sub G1 population: 24 hrs
Experimental: Effect of “Compound-17” on DNA content by cell cycle phase distribution was assessed using human leukemia MOLT-4. The MOLT-4 cells (1×10^6 cells/ml) in RPMI-1640 medium were incubated with “Compound-17” (1, 10, 50 and 100 μM) for 24 hrs. The cells were then washed twice with ice-cold PBS, harvested, fixed with ice-cold PBS in 70% ethanol, and stored at −20° C. for 30 min. After fixation, the cells were incubated with RNase A (0.1 mg/ml) at 37° C. for 30 min, stained with propidium iodide (50 μg/ml) for 30 min on ice in dark, and then measured for DNA content using BD-LSR Flow cytometer (Becton Dickinson, USA) equipped with electronic doublet discrimination capability using blue (488 nm) excitation from argon laser. Data were collected in list mode on 10,000 events for FL2-A vs. FL2-W and analyzed (FIG. 3).^3d

[4] = system: human cancer cell lines; assay: In vitro cytotoxicity screening, human cancer cell lines in general; type: cell-based; conditions: all the cell lines used, read-out: growth inhibition of human cancer cell lines
Experimental: (§3) Cells at sub confluent stage were harvested from the flask by treatment with trypsin (0.5% in PBS containing 0.02% EDTA) for determination of cytotoxicity. Cells with viability of more than 98%, as determined by trypan blue, were used for assay. The cell suspensions of required cell density were prepared in complete growth medium with gentamycin (50 μg/ml) for determination of cytotoxicity. The cells (100 μl/well) were inoculated in 96 well tissue culture plates. The cells were allowed to grow for 24 hrs temperature of 37° C. and in a humidified atmosphere of 5% CO2 in air. Stock solution of (20 mM) of test material was prepared in DMSO. The stock solution was serially diluted with complete growth medium containing 50 μg/ml of gentamycin to obtain […] working test solutions of 1., 2, 5, 10, 50 and 100 μM. In vitro cytotoxicity (IC50 value) against human cancer cell lines was determined using sulphodamine B dye.^5,6 The results are summarized in table 4.
(§4) The human Cancer Cell lines were obtained either from National Center for Cell Science, Pune, India or National Cancer Institute, Frederick, U.S.A. The human cancer cell colon: SW-620, prostrate, PC-3, DU-145 and acute lymphoblastic leukemia (MOLT-4) were grown and maintained in RPMI-1640 medium, pH 7.4, HEP-2. […]

[5] = system: Hep-2; assay: In vitro cytotoxicity screening (sulphodamine B dye), Hep-2; type: cell-based; conditions: Homo sapiens, read-out: cell growth inhibition
Experimental: as §3, §4

[6] = system: acute lymphoblastic leukemia Cells (MOLT-4); assay: DNA fragmentation by DNA gel electrophoresis; type: cell-based, human; conditions: 10, 50 & 100 μM, 24 hrs
Experimental: DNA fragmentation was determined by electrophoresis of extracted genomic DNA from acute lymphoblastic leukemia Cells (MOLT-4). Briefly, exponentially growing cells (3×10^6 cells/ml) in 6 well plates were treated with “Compound-17” (1, 10, 50 and 100 μM) for 24 hrs. Cells were harvested, washed with PBS, pellets were dissolved in lysis buffer (10 mM EDTA, 50 mM Tris Buffer, pH 8.0, 0.5% w/v SDS and proteinase K 0.5 mg/ml) and incubated at 50° C. for 1 hr. lysate was further incubated with RNase A (0.5 mg/ml) at 50° C. for 1 hr. Finally, the DNA obtained was heated rapidly to 70° C., supplemented with loading dye and immediately resolved on to 1.5% agarose gel at 50 V for 2-3 hrs (FIG. 2).

C[C@H]1CC[C@@H]2[C@@H](OC(=O)C23CC(c2c4ccccc4cc4ccccc24)=NO3)[C@]2(C)C(=O)C=C[C@@]12O (some centres unmarked) [Compound -17]
IC50 ([1]; DU-145 prostate cancer cell line): 4.6 µM
inhibition at 5 µM ([1]; at 5 μM, DU-145, read-out: cell growth inhibition): 85%
IC50 [2]: 4.9 µM
Sub G1 population ([3]; 1 μM): 6.58%
Sub G1 population ([3]; 10 μM): 33.09%
Sub G1 population ([3]; 50 μM): 33.2%
blockage of G1 phase of cell cycle ([3]; 100 μM): complete blockage of G1 phase
Sub G1 population ([3]; 100 μM): 55%
inhibition at 5 µM [4]: ≥ 70%
inhibition at 5 µM [5]: 71%
DNA ladder (DNA fragmentation) [6]: DNA ladder was observed
